# Measurements: patent US6589566B2, “Composition comprising theanine” (priority 1998, dated 2003)
# Assays:
# mice = assay type: in vivo; conditions: oral administration of 2 g/kg
# Excerpt: Theanine, formulated in the theanine-containing composition of the present invention, is a glutamic acid derivative contained in tea-leaves, which is the main component of deliciousness (umami) of tea. It is also used as a food additive for seasoning. […] As described above, the theanine is an extremely safe substance.
# ICR male mice = assay: Example 11: amount of spontaneous exercise, rotatable cage; assay type: in vivo; conditions: oral 10 ml of 1% by weight aqueous solution per 1 kg body weight, versus non-administered group
# Protocol: Ten ICR male mice were each orally administered with 10 ml of a 1% by weight theanine aqueous solution, per 1 kg of body weight, and the mice were allowed to stand in an inhalation box. The administered group of mice were compared with the 10 non-administered group of mice, wherein the amount of excercise was evaluated by counting the number of rotations of the rotatable cage for 60 minutes.
# [1] = test system: women complaining of premenstrual syndrome symptoms; assay: Test Example 5: premenstrual syndrome questionnaire, powdered L-theanine; assay type: in vivo, humans; conditions: 20 women, 50 mg powdered L-theanine per day during corpus lutea stage
# Protocol: A test for assessing the premenstrual syndrome-suppressive effect of the inventive product was performed in 20 women complaining of 5 or more premenstrual syndrome symptoms. The inventive product used herein was powdered L-theanine as prepared in Example 1. Each subject was requested to measure their basal body temperature upon awaking for 2 months. […] During the test period, physical symptoms, mental symptoms and social symptoms were recorded in detail everyday. On the first day of the third menstruation, the test was terminated and a questionnaire survey was conducted. Questionnaire Survey Concerning Premenstrual Syndrome of Test Example 5 1. Were PMS symptoms suppressed ? 1) having remarkable effects; 2) having some effects; 3) having slight effects; 4) none. 2. For those selected 1), 2) or 3) in 1., were there any improvements in the daily life ? […] 3. For those selected 1), 2) or 3) in 1., please give specifics: […]
# male and female subjects = assay: Test Example 4: anxiety group after coffee extract beverage containing L-theanine; assay type: in vivo, humans; conditions: 10 times per day for one month, 7 subjects
# Protocol: Each of male and female subjects consisting of a total of 7 members was given a beverage prepared by dissolving the L-theanine obtained in Examples 1 and 2 at amounts of 0 mg, 60 mg, 300 mg or 1200 mg in 100 g of coffee extract in boiling water (equivalent to about 1 mg/kg, about 5 mg/kg, and about […], respectively) 10 times per day for one month.
# [2] = Theanine content 60 mg in 100 g coffee extract
# [3] = Theanine content 300 mg in 100 g coffee extract
# [4] = Theanine content 1200 mg in 100 g coffee extract
smiles,measurement,setting,value
CCNC(=O)CC[C@H](N)C(=O)O [L-theanine],dead cases in acute toxicity test,mice,no dead cases
same,amount of exercise (number of rotations of the rotatable cage for 60 minutes),ICR male mice,significant decrease
same,Were PMS symptoms suppressed? 4) none,[1],0 subjects (0%).
same,High-Anxiety Group (number of subjects),male and female subjects; [2],2
same,Low-Anxiety Group (number of subjects),male and female subjects; [2],2
same,Moderate-Anxiety Group (number of subjects),male and female subjects; [2],3
same,High-Anxiety Group (number of subjects),male and female subjects; [3],0
same,Low-Anxiety Group (number of subjects),male and female subjects; [3],0
same,Moderate-Anxiety Group (number of subjects),male and female subjects; [3],1
same,High-Anxiety Group (number of subjects),male and female subjects; [4],0
same,Low-Anxiety Group (number of subjects),male and female subjects; [4],7
same,Moderate-Anxiety Group (number of subjects),male and female subjects; [4],0
